Experimental data reported in ChEMBL document CHEMBL1201862, “PubChem BioAssay data set” (2004).
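96-well plates; 48 h exposure; 5 concentrations. Endpoints by linear interpolation between flanking doses. Not reached: highest tested concentration assigned. Abbreviation: GI50, concentration required for 50% inhibition of growth.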 Activity calls are given as the source filed them. No stated cut-off is given here; in the data, active = GI50 up to about 1.1 µM and inactive = higher.

Legend:
Experiment in all cases: inhibition of tumour cell growth, NCI panel, 48 h
[1] = test system: ACHN
[2] = test system: EKVX
[3] = test system: HT-29
[4] = test system: Hs-578T
[5] = test system: MCF7
[6] = test system: MDA-MB-231
[7] = test system: NCI-H23
[8] = test system: NCI/ADR-RES
[9] = test system: OVCAR-3
[10] = test system: SF-268
[11] = test system: SF-295
[12] = test system: SK-MEL-28
[13] = test system: SK-OV-3
[14] = test system: SN12C
[15] = test system: SNB-75
[16] = test system: TK-10
[17] = test system: U-251
[18] = test system: UACC-62
[19] = test system: UO-31
[20] = test system: MDA-N

Measured: GI50

O=C(O)CN1CCN2CCOCCN(CC1)CCN(CC(=O)O)CC2
inactive: [1] > 100 µM | [2] > 100 µM | [3] > 100 µM | [4] > 100 µM | [5] > 100 µM | [6] > 100 µM | [7] > 100 µM | [8] > 100 µM | [9] > 100 µM | [10] > 100 µM | [11] > 100 µM | [12] > 100 µM | [13] > 100 µM | [14] > 100 µM | [15] > 100 µM | [16] > 100 µM | [17] > 100 µM | [18] > 100 µM | [19] > 100 µM

COc1cc([C@@H]2c3cc4c(cc3[C@@H](c3c(O)cc(O)c5c3O[C@H](c3ccc(O)c(O)c3)[C@@H](O)C5)[C@H]3COC(=O)[C@H]23)OCO4)cc(OC)c1OC
inactive: [1] 1.78 µM | [2] 50.1 µM | [3] 25.5 µM | [4] 34 µM | [5] 1.72 µM | [6] 1.67 µM | [7] 78 µM | [8] 46 µM | [9] 1.64 µM | [10] 29.7 µM | [11] 1.85 µM | [12] 48.4 µM | [13] 1.83 µM | [14] 32.2 µM | [16] 1.79 µM | [17] 1.69 µM | [18] 1.72 µM

CCOC(=O)C1=C(C)OC2(O)C=CC(O)=C3C(=O)N(c4ccccc4)C(=O)C312 (stereo not drawn)
inactive: [1] 31.8 µM | [2] 54 µM | [3] 29.3 µM | [4] 32.9 µM | [5] 29.6 µM | [6] 37.8 µM | [7] 40.8 µM | [8] 42.2 µM | [9] 61.9 µM | [10] 38.7 µM | [11] > 100 µM | [12] 22.5 µM | [13] 90.8 µM | [14] 40.7 µM | [15] 41.8 µM | [16] 37.4 µM | [17] 35.7 µM | [18] 29.9 µM | [19] 24.4 µM

O=C1CSc2ccnc(=O)n21
inactive: [1] > 100 µM | [2] > 100 µM | [4] > 100 µM | [5] > 100 µM | [20] > 100 µM | [7] > 100 µM | [10] > 100 µM | [12] > 100 µM | [13] > 100 µM | [14] > 100 µM | [15] 93.5 µM | [16] > 100 µM | [17] > 100 µM | [18] > 100 µM | [19] > 100 µM

O=C(O)C(C1NCCS1)N1Cc2ccccc2C1 (stereo not drawn)
inactive: [1] > 100 µM | [2] > 100 µM | [3] > 100 µM | [5] > 100 µM | [6] > 100 µM | [20] > 100 µM | [7] > 100 µM | [8] > 100 µM | [9] > 100 µM | [11] > 100 µM | [12] > 100 µM | [13] > 100 µM | [14] > 100 µM | [15] > 100 µM | [16] > 100 µM | [17] > 100 µM | [18] > 100 µM | [19] > 100 µM
